Data from patent US20130040944A1, “MGLUR4 ALLOSTERIC POTENTIATORS, COMPOSITIONS, AND METHODS OF TREATING NEUROLOGICAL DYSFUNCTION” (VANDERBILT UNIVERSITY, priority 2009, published 2013).

Target: human mGluR4 (Homo sapiens, UniProt Q14833)
Assay: potentiation of human mGluR4 in transfected CHO cells, Ca2+-sensitive dye fluorescence, EC20 agonist
Conditions: for Emax: CHO, read-out: % Glu Max
[1] = hEC50, human mGluR4 potentiation, unit inferred
[2] = EC50 (nM), potentiation of EC20 agonist response, Table I

human mGluR4, sequence (Q14833 33-912): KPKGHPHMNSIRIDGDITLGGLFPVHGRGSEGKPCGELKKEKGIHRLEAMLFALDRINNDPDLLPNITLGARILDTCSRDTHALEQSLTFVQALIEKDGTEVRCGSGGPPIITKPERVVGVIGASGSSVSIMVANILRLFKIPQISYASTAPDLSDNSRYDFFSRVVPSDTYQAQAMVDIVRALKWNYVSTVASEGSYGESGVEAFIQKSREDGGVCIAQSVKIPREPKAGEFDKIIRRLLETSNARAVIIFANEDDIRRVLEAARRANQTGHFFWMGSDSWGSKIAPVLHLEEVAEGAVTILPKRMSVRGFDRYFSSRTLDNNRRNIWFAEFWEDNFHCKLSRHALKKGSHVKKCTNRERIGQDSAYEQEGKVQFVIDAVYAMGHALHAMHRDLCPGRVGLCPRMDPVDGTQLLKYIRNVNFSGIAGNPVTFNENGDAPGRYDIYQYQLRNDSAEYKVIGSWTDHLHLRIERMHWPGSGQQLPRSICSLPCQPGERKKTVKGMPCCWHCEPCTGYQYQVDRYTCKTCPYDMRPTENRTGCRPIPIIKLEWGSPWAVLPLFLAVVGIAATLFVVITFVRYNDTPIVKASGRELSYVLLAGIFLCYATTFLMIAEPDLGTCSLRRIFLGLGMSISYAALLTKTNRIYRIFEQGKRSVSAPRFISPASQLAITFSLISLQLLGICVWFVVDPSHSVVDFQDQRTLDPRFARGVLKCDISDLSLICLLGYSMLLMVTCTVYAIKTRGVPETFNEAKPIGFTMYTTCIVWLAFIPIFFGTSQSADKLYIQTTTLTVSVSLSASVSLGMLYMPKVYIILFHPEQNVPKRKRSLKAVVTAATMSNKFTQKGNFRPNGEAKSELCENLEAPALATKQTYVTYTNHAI

EC50 [1]	Emax	EC50 [2]	Structure (SMILES)
1040 nM			O=C(Nc1ccn(S(=O)(=O)c2ccc(Cl)s2)c1)c1ccccn1 [Example 131, N-(1-((5-chlorothiophen-2-yl)sulfonyl)-1H-pyrrol-3-yl)picolinamide]
129 nM			Cc1ccc(S(=O)(=O)n2ccc(NC(=O)c3ccccn3)c2)cc1Cl [Example 112, N-(1-((3-chloro-4-methylphenyl)sulfonyl)-1H-pyrrol-3-yl)picolinamide]
6380 nM			O=C(O)c1ccc(S(=O)(=O)n2ccc(NC(=O)c3ccccn3)c2)cc1 [Example 155, 4-((3-(picolinamido)-1H-pyrrol-1-yl)sulfonyl)benzoic acid]
	76%	574 nM	O=C(Nc1ccn(S(=O)(=O)Cc2ccccc2)c1)c1cccc(F)n1 [Example 41, N-(1-(benzylsulfonyl)-1H-pyrrol-3-yl)-6-fluoropicolinamide]
5120 nM			O=C(Nc1ccn(S(=O)(=O)c2ccc(Cl)c(C(F)(F)F)c2)c1)c1ccccn1 [Example 102, N-(1-((4-chloro-3-(trifluoromethyl)phenyl)sulfonyl)-1H-pyrrol-3-yl)picolinamide]
1050 nM			CC(c1ccccc1Cl)S(=O)(=O)n1ccc(NC(=O)c2ccccn2)c1 (stereo not shown) [Example 106, N-(1-((1-(2-chlorophenyl)ethyl)sulfonyl)-1H-pyrrol-3-yl)picolinamide]
	152%	483 nM	O=C(Nc1ccn(S(=O)(=O)CCc2ccccc2)c1)c1ccccn1 [Example 40, N-(1-(phenethylsulfonyl)-1H-pyrrol-3-yl)picolinamide]
178 nM			O=C(Nc1ccn(S(=O)(=O)c2cccc(F)c2)c1)c1ccccn1 [Example 90, N-(1-((3-fluorophenyl)sulfonyl)-1H-pyrrol-3-yl)picolinamide]
	55%	951 nM	O=C(Nc1ccn(S(=O)(=O)Cc2ccccc2)c1)c1ccccc1 [Example 6, N-(1-(benzylsulfonyl)-1H-pyrrol-3-yl)benzamide]
664 nM			COc1ccc(S(=O)(=O)n2ccc(NC(=O)c3ccccn3)c2)cc1Cl [Example 64, N-(1-((3-chloro-4-methoxyphenyl)sulfonyl)-1H-pyrrol-3-yl)picolinamide]
	67%	198 nM	Cc1ccccc1S(=O)(=O)n1ccc(NC(=O)c2ccccn2)c1 [Example 9]
228 nM			Cc1ccc(C)c(S(=O)(=O)n2ccc(NC(=O)c3ccccn3)c2)c1 [Example 81, N-(1-((2,5-dimethylphenyl)sulfonyl)-1H-pyrrol-3-yl)picolinamide]
917 nM			O=C1CCc2ccc(S(=O)(=O)n3ccc(NC(=O)c4ccccn4)c3)cc2N1 [Example 152, N-(1-((2-oxo-1,2,3,4-tetrahydroquinolin-7-yl)sulfonyl)-1H-pyrrol-3-yl)picolinamide]
45.3 nM			O=C(Nc1ccn(S(=O)(=O)c2ccc3c(c2)OCCO3)c1)c1ccccn1 [Example 156, N-(1-((2,3-dihydrobenzo[b][1,4]dioxin-6-yl)sulfonyl)-1H-pyrrol-3-yl)picolinamide]
767 nM			O=C(Nc1ccn(S(=O)(=O)Cc2ccccc2Cl)c1)c1nccs1 [Example 52, N-(1-((2-chlorobenzyl)sulfonyl)-1H-pyrrol-3-yl)thiazole-2-carboxamide]
492 nM			O=C(Nc1ccn(S(=O)(=O)Cc2ccccc2Cl)c1)c1cscn1 [Example 62, N-(1-((2-chlorobenzyl)sulfonyl)-1H-pyrrol-3-yl)thiazole-4-carboxamide]
343 nM			O=C(Nc1ccn(S(=O)(=O)Cc2c(F)cccc2F)c1)c1nccs1 [Example 93, N-(1-((2,6-difluorobenzyl)sulfonyl)-1H-pyrrol-3-yl)thiazole-2-carboxamide]
2950 nM			Cc1nc(C)c(S(=O)(=O)n2ccc(NC(=O)c3ccccn3)c2)s1 [Example 127, N-(1-((2,4-dimethylthiazol-5-yl)sulfonyl)-1H-pyrrol-3-yl)picolinamide]
393 nM			Cc1c(F)cccc1S(=O)(=O)n1ccc(NC(=O)c2ccccn2)c1 [Example 115, N-(1-((3-fluoro-2-methylphenyl)sulfonyl)-1H-pyrrol-3-yl)picolinamide]
1270 nM			O=C(Nc1ccn(S(=O)(=O)c2ccc(F)c(F)c2)c1)c1nccs1 [Example 80, N-(1-((3,4-difluorophenyl)sulfonyl)-1H-pyrrol-3-yl)thiazole-2-carboxamide]
153 nM			O=C(Nc1ccn(S(=O)(=O)Cc2c(F)cccc2F)c1)c1ccccn1 [Example 92, N-(1-((2,6-difluorobenzyl)sulfonyl)-1H-pyrrol-3-yl)picolinamide]
1940 nM			O=C(Nc1ccn(S(=O)(=O)c2ccc3c(c2)OCO3)c1)c1ccco1 [Example 166, N-(1-(benzo[d][1,3]dioxol-5-ylsulfonyl)-1H-pyrrol-3-yl)furan-2-carboxamide]
1070 nM			O=C(Nc1ccn(S(=O)(=O)c2ccc(N3CCOCC3)nc2)c1)c1ccccn1 [Example 144, N-(1-((6-morpholinopyridin-3-yl)sulfonyl)-1H-pyrrol-3-yl)picolinamide]
22900 nM			Cc1cc(C)c(S(=O)(=O)n2ccc(NC(=O)c3ccccn3)c2)cc1Cl [Example 114, N-(1-((5-chloro-2,4-dimethylphenyl)sulfonyl)-1H-pyrrol-3-yl)picolinamide]

EC50 [1]	Emax	EC50 [2]	Structure (SMILES)
2540 nM			O=C(Nc1ccn(S(=O)(=O)c2cccc(Cl)c2F)c1)c1ccco1 [Example 162, N-(1-((3-chloro-2-fluorophenyl)sulfonyl)-1H-pyrrol-3-yl)furan-2-carboxamide]
447 nM			Cc1cc(S(=O)(=O)n2ccc(NC(=O)c3ccccn3)c2)ccc1Cl [Example 83, N-(1-((4-chloro-3-methylphenyl)sulfonyl)-1H-pyrrol-3-yl)picolinamide]
1620 nM			O=C(Nc1ccn(S(=O)(=O)c2cccc(C(F)(F)F)c2)c1)c1ccccn1 [Example 85, N-(1-((3-(trifluoromethyl)phenyl)sulfonyl)-1H-pyrrol-3-yl)picolinamide]
12200 nM			O=C(Nc1cn(S(=O)(=O)c2ccc(Cl)cc2)c2ccccc12)c1ccccn1 [Example 111, N-(1-((4-chlorophenyl)sulfonyl)-1H-indol-3-yl)picolinamide]
4130 nM			O=C(Nc1ccn(S(=O)(=O)c2ccc(Cl)cc2F)c1)c1ccco1 [Example 169, N-(1-((4-chloro-2-fluorophenyl)sulfonyl)-1H-pyrrol-3-yl)furan-2-carboxamide]
	129%	4620 nM	O=C(Nc1ccn(S(=O)(=O)Cc2ccccc2)c1)c1cscn1 [Example 42, N-(1-(benzylsulfonyl)-1H-pyrrol-3-yl)thiazole-4-carboxamide]
125 nM			O=C(Nc1ccn(S(=O)(=O)Cc2ccc(F)cc2Cl)c1)c1ccccn1 [Example 57, N-(1-((2-chloro-4-fluorobenzyl)sulfonyl)-1H-pyrrol-3-yl)picolinamide]
230 nM			COc1cccc(S(=O)(=O)n2ccc(NC(=O)c3ccccn3)c2)c1 [Example 88, N-(1-((3-methoxyphenyl)sulfonyl)-1H-pyrrol-3-yl)picolinamide]
4020 nM			O=C(Nc1ccn(S(=O)(=O)c2ccc(C(F)(F)F)c(F)c2)c1)c1ccccn1 [Example 104, N-(1-((3-fluoro-4-(trifluoromethyl)phenyl)sulfonyl)-1H-pyrrol-3-yl)picolinamide]
640 nM			O=C(Nc1ccn(S(=O)(=O)c2ccc(F)c(Cl)c2)c1)c1ccccn1 [Example 128, N-(1-((3-chloro-4-fluorophenyl)sulfonyl)-1H-pyrrol-3-yl)picolinamide]
	227%	6410 nM	O=C(Nc1ccn(S(=O)(=O)Cc2ccccc2)c1)c1ccco1 [Example 1, N-(1-(benzylsulfonyl)-1H-pyrrol-3-yl)furan-2-carboxamide]
2060 nM			COc1ccccc1S(=O)(=O)n1ccc(NC(=O)c2ccccn2)c1 [Example 72, N-(1-((2-methoxyphenyl)sulfonyl)-1H-pyrrol-3-yl)picolinamide]
	91%	222 nM	O=C(Nc1ccn(S(=O)(=O)c2ccccc2Cl)c1)c1ccccn1 [Example 11]
307 nM			O=C(Nc1ccn(S(=O)(=O)Cc2ccccc2Cl)c1)c1csnn1 [Example 66, N-(1-((2-chlorobenzyl)sulfonyl)-1H-pyrrol-3-yl)-1,2,3-thiadiazole-4-carboxamide]
431 nM			Cc1ccc(C(=O)Nc2ccn(S(=O)(=O)Cc3ccc(Cl)cc3)c2)nc1 [Example 97, N-(1-((4-chlorobenzyl)sulfonyl)-1H-pyrrol-3-yl)-5-methylpicolinamide]
276 nM			O=C(Nc1ccn(S(=O)(=O)c2cc(F)c(F)c(F)c2)c1)c1ccccn1 [Example 126, N-(1-((3,4,5-trifluorophenyl)sulfonyl)-1H-pyrrol-3-yl)picolinamide]
3810 nM			Cc1ccc(S(=O)(=O)n2cc(NC(=O)c3ccccn3)cc2C)cc1 [Example 151, N-(5-methyl-1-tosyl-1H-pyrrol-3-yl)picolinamide]
225 nM			O=C(Nc1ccn(S(=O)(=O)c2ccc(CCl)cc2)c1)c1ccccn1 [Example 147, N-(1-((4-(chloromethyl)phenyl)sulfonyl)-1H-pyrrol-3-yl)picolinamide]
	101%	526 nM	O=C(Nc1ccn(S(=O)(=O)c2ccccc2C(F)(F)F)c1)c1ccccn1 [Example 10]
301 nM			O=C(Nc1ccn(S(=O)(=O)c2ccc(F)c(F)c2F)c1)c1ccccn1 [Example 139, N-(1-((2,3,4-trifluorophenyl)sulfonyl)-1H-pyrrol-3-yl)picolinamide]
116 nM			COc1ccc(S(=O)(=O)n2ccc(NC(=O)c3ccccn3)c2)cn1 [Example 140, N-(1-((6-methoxypyridin-3-yl)sulfonyl)-1H-pyrrol-3-yl)picolinamide]
396 nM			Cc1cc(S(=O)(=O)n2ccc(NC(=O)c3ccccn3)c2)ccc1F [Example 77, N-(1-((4-fluoro-3-methylphenyl)sulfonyl)-1H-pyrrol-3-yl)picolinamide]
3240 nM			O=C(Nc1ccn(S(=O)(=O)c2ccc(OC(F)F)cc2)c1)c1ccco1 [Example 163, N-(1-((4-(difluoromethoxy)phenyl)sulfonyl)-1H-pyrrol-3-yl)furan-2-carboxamide]
